Reference: US7807854B2, “Effective use method of medicaments and method of preventing expression of side effect” (priority 2004, dated 2010)

Key:
Type in all cases: in vivo
skin allograft = experiment: Prolonging effect on skin allograft survival between MHC-compatible rat strains (LEW donor, F344 recipient)
From the text: Five animals were included per group, and all rats were bread in separate cages. LEW(RT1^l) was selected as donor, and F344(RT1^lvl) was selected as recipient. A part of dermis (1.8×1.8 cm) on the back of recipient was excised, and after giving several drops of penicillin solution (40,000 U/mL, in saline) thereon, a full thickness skin graft (1.8×1.8 cm) prepared from abdominal part of donor was put thereon. First-aid adhesive tape (30×72 mm) was applied so that the center pad thereof lies on the graft, and secured by binding aeration tape (adhesive bandage, 3.8×15 cm) therearound. At 5 days, the first-aid adhesive tape and the aeration tape were removed by cutting with scissors.
Drug administration was conducted by orally administering 0.5 mL/100 g B.W. of drug once a day everyday from the day of skin transplantation. Control group was received distilled water. As the CsA, Sandimmun injection (50 mg/mL) diluted in distilled water was administered. As the FK506, the filling of Prograf capsule (Fujisawa Pharmaceutical Co., Ltd.) suspended in distilled water was administered. […] A combinational administration group was received a mixture prepared by mixing liquids to be administered right before administration.
Grafts were observed everyday from fifth day of transplantation at which the first-aid adhesive tape was removed, and the condition that 90% or more of graft epithelium necrotized to turn brown was determined as occurrence of rejection. Number of days from transplantation to determination of rejection was defined as a survival time.
Mean value of survival times for each group was calculated as a mean survival time (MST). In each group (n=5), the third-longest survival time was defined as a median value.

adjuvant arthritis = experiment: Rat adjuvant arthritis (AA) model, hind limb volume increase; conditions: for Inhibition of adjuvant arthritis (hind limb volume increase): oral once daily, Day 21
Method: In a footpad of right hind limb of 6 or 7-week-old female LEW/Crj rat (Charles River Japan, Inc.), 0.05 mL (0.6 mg/animal) of killed M. butyricum (12 mg/mL) suspended in liquid paraffin was intradermally injected to cause arthritis (Day 0). Test compound was dissolved or suspended in pure water and orally administered in a volume of 0.5 mL per 100 g of body weight of rat. Adjuvant control was received only pure water. As for the combinational administration group, an aqueous solution of KNF-299 and an aqueous solution of MTX(Sigma) were administered after being mixed before administration. Administration was conducted once a day everyday from Day 0 to end of the experiment. Evaluation of arthritis was made by measuring volumes of left and right hind limbs by using a volume meter (MK-550, Muromachi Kikai) at Day 0, 3, 8, 14, 17, and 21, and determining an increase relative to hind limb at Day 0.

transplanted heart = experiment: Prolonging effect on heart graft survival between MHC-incompatible rat strains (DA donor, LEW recipient)
Method: Effect of KNF-299 was examined in allogeneic heart transplantation between MHC-incompatible rats. Using combination of DA (RT1^a) rat as a donor, and LEW (RT1^l) rat as a recipient, heterotopic heart transplantation in which heart of donor is joined to neck vessel of recipient with a cuff was conducted with reference to a literature (Microsurgery; 21, 16-21, 2001) or the like.
Drug was administered orally once a day everyday from the day of heart transplantation. MPA was prepared from the product purchased from Wako Pure Chemical Industries, Ltd. so that the concentration was 20 mg/mL in a saline containing 0.5% carboxymethyl cellulose, 0.4% Tween 80, and 0.9% benzyl alcohol, and administered in 0.1 mL/100 g B.W.
KNF-299 was dissolved in distilled water in a concentration of 0.06 mg/mL, and administered in 0.5 mL/100 g B.W. A control group was received a vehicle used for MPA administration liquid.
Cardiac pulsation of the transplanted heart was checked by inspection or palpation, and determination of rejection was made when cardiac pulsation stopped. Number of days from transplantation to determination of rejection was defined as survival time. Mean value of survival time in each group was calculated as mean survival time (MST).

[1] = FK506 3 mg/kg oral once daily, third test (headed Test 2)
[2] = KNF-299 0.03 mg/kg oral once daily, Test 2
[3] = KNF-299 0.1 mg/kg oral once daily, third test (headed Test 2)

SMILES: C=CC[C@@H]1/C=C(\C)C[C@H](C)C[C@H](OC)[C@H]2O[C@@](O)(C(=O)C(=O)N3CCCC[C@H]3C(=O)O[C@H](/C(C)=C/[C@@H]3CC[C@@H](O)[C@H](OC)C3)[C@H](C)[C@@H](O)CC1=O)[C@H](C)C[C@@H]2OC [FK506, tacrolimus, reference compound]
- Survival time (day) of skin graft, MST (skin allograft; [1]): 9.2 days
- Survival time (day) of skin graft, Median (skin allograft; [1]): 9.0 days

SMILES: NC(CO)(CO)CCc1ccc(Sc2cccc(OCc3ccccc3)c2)cc1Cl [KNF-299, 2-amino-2-[4-(3-benzyloxyphenylthio)-2-chlorophenyl]ethyl-1,3-propanediol]
- Survival time (day) of skin graft, MST (skin allograft; [2]): 9.0 days
- Survival time (day) of skin graft, Median (skin allograft; [2]): 9.0 days
- Survival time (day) of skin graft, MST (skin allograft; [3]): 8.8 days
- Survival time (day) of skin graft, Median (skin allograft; [3]): 9.0 days
- Survival time (day) of skin graft, Median (skin allograft; KNF-299 3 mg/kg oral once daily, Test 1): >30 days
- Effect on skin graft survival (in words) (skin allograft; KNF-299 3 mg/kg single administration): clear prolonging effect
- Inhibition of adjuvant arthritis (hind limb volume increase) (adjuvant arthritis; KNF-299 0.01 mg/kg alone): 36%
- Ability to prevent onset of adjuvant arthritis (adjuvant arthritis; KNF-299 0.1 mg/kg p.o. once daily, FIG. 1): reaches almost maximum
- Survival time (day) of transplanted heart, MST (transplanted heart; KNF-299 0.3 mg/kg oral once daily): 7.0 days
- Prolonging effect on heart graft mean survival time compared to control group (transplanted heart; KNF-299 0.3 mg/kg single administration): 1.2 days

SMILES: COc1c(C)c2c(c(O)c1C/C=C(\C)CCC(=O)O)C(=O)OC2 [MPA, mycophenolic acid, reference compound]
- Survival time (day) of transplanted heart, MST (transplanted heart; MPA 20 mg/kg oral once daily): >54.4 days
- Rejection preventing effect on transplanted heart (in words) (transplanted heart; MPA 20 mg/kg single administration): insufficient

SMILES: CN(Cc1cnc2nc(N)nc(N)c2n1)c1ccc(C(=O)N[C@@H](CCC(=O)O)C(=O)O)cc1 [MTX, methotrexate]
- Inhibition of adjuvant arthritis (hind limb volume increase) (adjuvant arthritis; MTX 0.025 mg/kg alone, not significant): 20%
- Ability to prevent onset of adjuvant arthritis (adjuvant arthritis; MTX 0.03 mg/kg oral once daily, FIG. 2): not observed
- Inhibition of adjuvant arthritis (hind limb volume increase) (adjuvant arthritis; MTX 0.05 mg/kg alone, not significant): 35%
- Ability to prevent onset of adjuvant arthritis (adjuvant arthritis; MTX 0.1 mg/kg oral once daily, FIG. 2): reached maximum
